For orientation: IC50 means the midpoint of a concentration-inhibition curve. Read a low IC50 as inhibition by little substance.

Experiment [1] concerns NF-kB-dependent TNF-α secretion. The experiment is described as follows: TNF-α secretion assay (counterscreen). The following applies: Homo sapiens; THP-1 cells, Pam3CSK4-stimulated, 3 hours, HTRF. It counts as cell-based. Put shortly:
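Undifferentiated THP-1 cells, rested overnight, given compound then stimulated with 1 μg/mL LPS or 100 ng/mL Pam3CSK4 for 3 hours. Supernatant TNF-α measured by HTRF; IC50 from four-parameter logistic fit of % inhibition versus concentration, with viability monitored.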
(The purpose of a counterscreen is to sort out artefacts and off-target activity.)

In experiment [2] the test system is THP-1 cells. The experiment is described as follows: Readout of pyroptosis (PrestoBlue cell viability reagent) in the IL-1β secretion assay. It counts as cell-based. The following applies: Homo sapiens; PMA-differentiated THP-1 cells, nigericin; values marked * in the IL-1β column. As to the method:
Monocytic THP-1 cells (ATCC: TIB-202) were maintained according to providers' instructions in RPMI media (RPMI/Hepes+10% fetal bovine serum+Sodium Pyruvate+0.05 mM Beta-mercaptoethanol (1000× stock)+Pen-Strep). Cells were differentiated in bulk with 0.5 μM phorbol 12-myristate 13-acetate (PMA; Sigma #P8139) for 3 hours, media was exchanged, and cells were plated at 50,000 cells per well in a 384-well flat-bottom cell culture plates (Greiner, #781986), and allowed to differentiate overnight. Compound in a 1:3.16 serial dilution series in DMSO was added 1:100 to the cells and incubated for 1 hour. The NLRP3 inflammasome was activated with the addition of 15 μM (final concentration) Nigericin (Enzo Life Sciences, #BML-CA421-0005), and cells were incubated for 3 hours. 10 μL supernatant was removed, and IL-1p levels were monitored using an HTRF assay (CisBio, #62IL1PEC) according to manufacturers' instructions. Viability and pyroptosis was monitored with the addition of PrestoBlue cell viability reagent (Life Technologies, #A13261) directly to the cell culture plate.

As to `CC(C)c1nn(CC(=O)N[C@H]2CCC[C@@H](NC(=O)OC(C)(C)C)C2)c(=O)c2cc3sc(Cl)cc3n12` [Ex 56, tert-Butyl ((1R,3S)-3-(2-(2-chloro-5-isopropyl-8-oxothieno[2′,3′:4,5]pyrrolo[1,2-d][1,2,4]triazin-7(8H)-yl)acetamido)cyclohexyl)carbamate], the IC50 in experiment [1] was greater than 100 µM; in experiment [2], greater than 0.33 µM.

In experiment [2], `CC(C)(O)c1nn(CC(=O)Nc2cccc(NS(C)(=O)=O)c2)c(=O)c2cc3sc(Cl)cc3n12` [Ex 116, 2-(2-Chloro-5-(2-hydroxypropan-2-yl)-8-oxothieno[2′,3′:4,5]pyrrolo[1,2-d][1,2,4]triazin-7(8H)-yl)-N-(3-(methylsulfonamido)phenyl)acetamide] came in with an IC50 of 0.4 µM.

In turn, `CC(C)c1nn(CC(=O)Nc2nncs2)c(=O)c2cc3sc(Cl)cc3n12` [Ex 117, 2-(2-Chloro-5-isopropyl-8-oxothieno[2′,3′:4,5]pyrrolo[1,2-d][1,2,4]triazin-7(8H)-yl)-N-(1,3,4-thiadiazol-2-yl)acetamide] yielded an IC50 in experiment [2] of 6 µM.

The record behind these values is patent publication US12168012B2, “NLRP3 inflammasome inhibitors” (Novartis AG, priority 2018, dated 2024).
